In one assay the target is T1, V1aR (Homo sapiens, UniProt P37288).
T1 construct: expressed in transfected cells; host or cells: HEK 293T (printed for the general protocol, whose plasmid sentence names only the V2 receptor)
Description: TR-FRET (HTRF) saturation binding assay on SNAP-tag labeled receptor in cells. The following applies: saturation with fluorescent ligand; mean ± SEM of three independent experiments in triplicate; read-out: Binding, HTRF (Kd, nM) V1a. On the procedure:
(§1) These assays were performed as described in Zwier et al (Journal of Biomolecular Screening 2010, 15, 1248-1259). Briefly, HEK 293T cells were cultivated in DMEM medium supplemented with 10% foetal calf serum (FCS) and 1% penicillin/streptomycin antibiotics. Confluent cells were dissociated and electroporated with plasmid DNA coding for the V2 receptor fused to the SNAP-tag suicide enzyme. Transfected cells were then plated in black 96-well plates previously coated with poly-ornithine (diluted at 0.1 mg.mL^-1 in sterile water, incubated 30 min at 37°C, washed with sterile PBS). Plates were incubated in supplemented DMEM medium for 48h à 37°C, […] and 5% CO2. Expressed receptors fused to SNAPtag were then labeled with fluorescent substrates, either with a donor (SNAP-Lumi4-Tb) or an acceptor (SNAP-RED) at respectively 100 or 300 nM in 100 µL of Tag-lite® labeling medium, for 1 h at 37 °C. Cells were then washed 3 times in Tag-lite medium and then incubated with the fluorescent ligands. For saturation assays, increasing concentrations of fluorescent ligands were diluted in 100 µL of Tag-lite medium. For competition assays, a fixed concentration of fluorescent ligand (typically 20 nM) was mixed with an increasing concentration of cold competitor ligand (in this case AVP) in Tag-lite medium. After overnight incubation at 4 °C (to prevent any internalization phenomenon), plates were read in an HTRF®-compatible multi-well plate reader with a classic HTRF® protocol (excitation at 340 nm, donor emission measured at 620 nm and acceptor emission at 665 nm, 50 µs delay, 500 µs integration).
(§2) Fluorescent compounds 21 to 24 were involved in the development of a TR-FRET based assay for both V1aR and OTR. Such technique usually offers a higher signal-to-noise ratio than classic FRET because of the long-lasting fluorescence of the lanthanide cryptate. TR-FRET based saturation experiments with fluorescent compounds 21 to 24 were performed on V1a, OT and V2 receptors labeled with the SNAP-tag® approach: cells expressing a receptor of interest fused to SNAP-tag are incubated in the presence of a fluorescent substrate to label the receptor. Cells were then incubated in the presence of increasing concentrations of a fluorescent ligand. Fluorophores of the SNAP-tag substrates and of the ligands are chosen to be compatible with time-resolved FRET. SNAP-tagged receptors were labeled either with a Lumi4-Tb donor (SNAP-Lumi4-Tb) or d2 acceptor (SNAP-red) depending on the nature of the ligands, either acceptor (21, 22) or donor (23, 24). Saturation curves were obtained when plotting specific FRET signal as a function of fluorescent compounds concentration; non-specific binding was determined in the presence of an excess of the unlabeled corresponding ligands (10 µM) (Figure 1).
For orientation: Time-resolved FRET reads energy transfer from a long-lived donor to a nearby acceptor.

In another assay the target is T2, V2 receptor (Homo sapiens, UniProt P30518).
T2 construct: expressed in transfected cells; host or cells: HEK 293T
Described as above. As to conditions: saturation with fluorescent ligand; mean ± SEM of three independent experiments in triplicate. On the procedure: as §1, §2

In a further assay the target is T3, OTR (Homo sapiens, UniProt P30559).
T3 construct: expressed in transfected cells; host or cells: HEK 293T (printed for the general protocol, whose plasmid sentence names only the V2 receptor)
T3 sequence (P30559 1-389): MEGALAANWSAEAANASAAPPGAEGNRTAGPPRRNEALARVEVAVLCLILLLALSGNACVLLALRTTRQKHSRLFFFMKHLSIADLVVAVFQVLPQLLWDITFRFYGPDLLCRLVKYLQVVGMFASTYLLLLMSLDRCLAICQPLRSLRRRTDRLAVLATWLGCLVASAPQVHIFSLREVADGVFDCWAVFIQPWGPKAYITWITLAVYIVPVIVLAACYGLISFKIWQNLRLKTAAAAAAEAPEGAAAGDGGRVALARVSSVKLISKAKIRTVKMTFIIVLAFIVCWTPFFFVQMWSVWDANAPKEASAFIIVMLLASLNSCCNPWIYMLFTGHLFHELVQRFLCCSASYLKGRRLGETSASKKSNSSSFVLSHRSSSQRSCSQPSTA
The description is as above. The following applies: saturation with fluorescent ligand; mean ± SEM of three independent experiments in triplicate; read-out: Binding, HTRF (Kd, nM) OT. As for the experimental part:
as §1, §2

Assay [1] concerns cAMP accumulation. Briefly: cAMP accumulation functional assay (agonist and antagonist mode). Type of assay: cell-based. On the technique in general: Cyclic AMP is a second messenger, typically raised through Gs and lowered through Gi signalling.
For assay [2], the system named is cAMP accumulation. The description is as above. Type of assay: cell-based. The source holds these as a separate data set.
Where [3] appears, read: cell incubation with fluorescent compound at a concentration of 100-fold Ki.

One may read the Kd as the concentration at which binding is half-saturated.

T1 sequence (P37288 whole entry): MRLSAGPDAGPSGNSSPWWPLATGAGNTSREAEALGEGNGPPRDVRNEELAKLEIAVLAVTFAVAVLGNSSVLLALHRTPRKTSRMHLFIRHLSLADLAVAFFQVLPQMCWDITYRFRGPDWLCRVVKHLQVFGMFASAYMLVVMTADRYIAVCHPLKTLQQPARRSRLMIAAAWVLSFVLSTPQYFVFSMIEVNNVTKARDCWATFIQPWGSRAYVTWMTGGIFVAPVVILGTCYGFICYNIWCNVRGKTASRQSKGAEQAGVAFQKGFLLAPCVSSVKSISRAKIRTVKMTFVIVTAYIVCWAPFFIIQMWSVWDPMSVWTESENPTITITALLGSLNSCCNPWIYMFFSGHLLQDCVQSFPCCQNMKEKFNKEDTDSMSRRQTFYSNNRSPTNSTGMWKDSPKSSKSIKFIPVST
T2 sequence (P30518 whole entry): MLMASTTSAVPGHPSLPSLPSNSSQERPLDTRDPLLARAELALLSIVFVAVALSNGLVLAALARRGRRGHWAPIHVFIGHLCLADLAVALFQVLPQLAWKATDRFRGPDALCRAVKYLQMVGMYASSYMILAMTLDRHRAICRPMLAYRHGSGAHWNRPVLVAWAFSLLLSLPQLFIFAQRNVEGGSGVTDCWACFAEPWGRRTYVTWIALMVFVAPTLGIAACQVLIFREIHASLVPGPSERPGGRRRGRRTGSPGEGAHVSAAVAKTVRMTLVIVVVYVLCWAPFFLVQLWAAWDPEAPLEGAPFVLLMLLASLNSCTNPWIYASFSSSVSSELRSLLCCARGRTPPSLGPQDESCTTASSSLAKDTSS

Take `CCN1C(=CC=CC=CC2=[N+](CC)c3ccc(S(=O)(=O)[O-])cc3C2(C)C)C(C)(CCCC(=O)NCCOCCN2CCN(CCCCCCOc3cccc(C)c3-n3c(C)nnc3-c3ccc(-c4ccccc4)cc3)CC2)c2cc(S(=O)(=O)O)ccc21` (stereo not shown) [Compound 21]: the values for the Kd at V1aR, at V2 receptor and at OTR were 6 ± 2 nM, over 1000 nM and 7 ± 2 nM, respectively. Moreover, the “cyclic adenosine monophosphate (cAMP) accumulation (intrinsic agonist activity)” value in the assay with cAMP accumulation [1] (setting [3]) is listed as “No significant increase in accumulation of second messengers”. Moreover, the “inhibition of AVP-induced cAMP accumulation” value in the assay with cAMP accumulation [1] (dose-dependent, antagonist mode) was “fully inhibited”.
For `CCN1C(=CC=CC=CC2=[N+](CC)c3ccc(S(=O)(=O)[O-])cc3C2(C)C)C(C)(CCCC(=O)NCCOCCOCCOCCN2CCN(CCCCCCOc3cccc(C)c3-n3c(C)nnc3-c3ccc(-c4ccccc4)cc3)CC2)c2cc(S(=O)(=O)O)ccc21` (stereo not shown) [Compound 22], the Kd at V1aR is 10 ± 2 nM; at V2 receptor, over 1000 nM; at OTR it was 11 ± 2 nM.
For the molecule arginine vasopressin [AVP], the EC50 in the assay on cAMP accumulation [2] (cAMP accumulation, agonist potency, read-out: Kact) turned out to be 0.29 nM. Also, the “cyclic adenosine monophosphate (cAMP) accumulation (intrinsic agonist activity)” value in the assay on cAMP accumulation [2] (setting [3]) is “full agonist properties”.

Source of the values: EP2716638A1, “Labeled ligands of the oxytocyn receptor” (Université de Strasbourg, priority 2012, dated 2014).
